From patent US5792758A, “Steroid nitrite ester derivatives useful as anti-inflammatory drugs” (G. D. Searle & Co., priority 1995, dated 1998)
pEC50: −log10 of the molar value.

System: rat aortic ring
Experiment: In vitro smooth muscle relaxant activity assay (rat aortic ring assay) in the presence of Cys and L-NAME
Assay type: cell-based
Conditions: for pEC50: rat aortic rings precontracted with phenylephrine (0.3 uM), read-out: Relaxation, EC50
Protocol: The rat aortic ring assay was utilized as a bioassay to measure the relaxant activity. The rings were precontracted with phenylephrine (0.3 uM) and subsequently compounds were added to the tissue bath in the presence of cysteine (Cys) and N^G -L-nitroarginine methyl ester (L-NAME): In vitro smooth muscle relaxant activity assay in the presence of Cys and L-NAME: […]

| SMILES | pEC50 | smooth muscle relaxant activity (in words) (rat aortic rings precontracted with phenylephrine) |
| --- | --- | --- |
| CCCC1O[C@@H]2C[C@H]3[C@@H]4CCC5=CC(=O)C=C[C@]5(C)[C@H]4[C@@H](ON=O)C[C@]3(C)[C@]2(C(=O)CO)O1 (stereo partly shown) [Example 1, Budesonide-11-nitrite ester] | 7.70 | – |
| CCCC1O[C@@H]2C[C@H]3[C@@H]4CCC5=CC(=O)C=C[C@]5(C)[C@H]4[C@@H](O)C[C@]3(C)[C@]2(C(=O)CO)O1 (stereo partly shown) [budesonide, 16a,17-butylidenedioxyprednisolone] | 4.00 | did not show any effect |
| CCCC1O[C@@H]2C[C@H]3[C@@H]4CCC5=CC(=O)C=C[C@]5(C)[C@H]4[C@@H](O)C[C@]3(C)[C@]2(C(=O)CO[N+](=O)[O-])O1 (stereo partly shown) [Example 2A, Budesonide-21-Nitrate ester] | 5.30 | – |
